The results in this text go back to US8586768B2, “Design, synthesis and functional characterization of rottlerin analogs” (priority 2009, dated 2013).

Where two headings read alike, the source gives them in different places.

Data set [1] relates to C57 black mice. The data set is described as follows: Acute MPTP mouse model of PD, locomotor activity (VersaMax Analyzer). Conditions: MPTP 4 x 18 mg/kg i.p.; 10 mg/kg oral gavage, 7 days. It counts as in vivo. Here is the method:
Lead PK analogs protect against behavioral deficits and neurochemical loss in a preclinical MPTP-induced mouse model of PD. After characterizing the neuroprotective effect of PK analogs in cell culture models of PD, as a proof of principle, preliminary evaluation of two lead PK analogs in an acute MPTP animal model of PD were conducted. C57 black mice received 4 doses of MPTP at 18 mg/kg i.p at 2 hr interval. Oral administration of lead PK analogs (10 mg/kg body wt, oral gavage) was started 1 day before MPTP insult and continued for 7 days. 1% DMSO was used as the vehicle control. Locomotor activity was measured using the VersaMax Analyzer 1-2 days before sacrificing the mice. Mice were sacrificed after 7 days of MPTP injection. (n=5). (**p<0.01: PK analogs versus MPTP).

In data set [2] the test system is N27 cells. Conditions: 300 μM MPP+ 24 hr. The procedure: (§1) At the end of the treatment, cytotoxicity was measured using the Sytox cell death assay in a 96-well fluorescence microplate reader.
A second generation of rottlerin analogs was further utilized for neuroprotection studies, as shown as PK201-203 in FIG. 2.
as §1
The analogs were tested in an N27 dopaminergic cell model for their neuroprotective properties. […] At the end of the treatment, cytotoxicity was measured using the Sytox cell death assay in a 96-well fluorescence microplate reader.
Rat mesencephalic dopaminergic clonal cells (N27) were used and maintained in RPMI 1640 complete medium supplemented with 10% Fetal Bovine Serum, 1% […] and 1% Penicillin/Streptomycin in a 37° C. incubator with 5% CO2. After 4-6 days in culture, the cells were used for the experiments.
N27 cells were exposed to MPP^+ for 24 hr in the presence or absence of PK analogs in the dose range of 1-30 μM.

Data set [3] has as its target T1, ASK1 (Homo sapiens, UniProt Q99683).
T1 construct: purchased Signal Chem (Richmond, BC, Canada)
T1 sequence (Q99683 1-1374): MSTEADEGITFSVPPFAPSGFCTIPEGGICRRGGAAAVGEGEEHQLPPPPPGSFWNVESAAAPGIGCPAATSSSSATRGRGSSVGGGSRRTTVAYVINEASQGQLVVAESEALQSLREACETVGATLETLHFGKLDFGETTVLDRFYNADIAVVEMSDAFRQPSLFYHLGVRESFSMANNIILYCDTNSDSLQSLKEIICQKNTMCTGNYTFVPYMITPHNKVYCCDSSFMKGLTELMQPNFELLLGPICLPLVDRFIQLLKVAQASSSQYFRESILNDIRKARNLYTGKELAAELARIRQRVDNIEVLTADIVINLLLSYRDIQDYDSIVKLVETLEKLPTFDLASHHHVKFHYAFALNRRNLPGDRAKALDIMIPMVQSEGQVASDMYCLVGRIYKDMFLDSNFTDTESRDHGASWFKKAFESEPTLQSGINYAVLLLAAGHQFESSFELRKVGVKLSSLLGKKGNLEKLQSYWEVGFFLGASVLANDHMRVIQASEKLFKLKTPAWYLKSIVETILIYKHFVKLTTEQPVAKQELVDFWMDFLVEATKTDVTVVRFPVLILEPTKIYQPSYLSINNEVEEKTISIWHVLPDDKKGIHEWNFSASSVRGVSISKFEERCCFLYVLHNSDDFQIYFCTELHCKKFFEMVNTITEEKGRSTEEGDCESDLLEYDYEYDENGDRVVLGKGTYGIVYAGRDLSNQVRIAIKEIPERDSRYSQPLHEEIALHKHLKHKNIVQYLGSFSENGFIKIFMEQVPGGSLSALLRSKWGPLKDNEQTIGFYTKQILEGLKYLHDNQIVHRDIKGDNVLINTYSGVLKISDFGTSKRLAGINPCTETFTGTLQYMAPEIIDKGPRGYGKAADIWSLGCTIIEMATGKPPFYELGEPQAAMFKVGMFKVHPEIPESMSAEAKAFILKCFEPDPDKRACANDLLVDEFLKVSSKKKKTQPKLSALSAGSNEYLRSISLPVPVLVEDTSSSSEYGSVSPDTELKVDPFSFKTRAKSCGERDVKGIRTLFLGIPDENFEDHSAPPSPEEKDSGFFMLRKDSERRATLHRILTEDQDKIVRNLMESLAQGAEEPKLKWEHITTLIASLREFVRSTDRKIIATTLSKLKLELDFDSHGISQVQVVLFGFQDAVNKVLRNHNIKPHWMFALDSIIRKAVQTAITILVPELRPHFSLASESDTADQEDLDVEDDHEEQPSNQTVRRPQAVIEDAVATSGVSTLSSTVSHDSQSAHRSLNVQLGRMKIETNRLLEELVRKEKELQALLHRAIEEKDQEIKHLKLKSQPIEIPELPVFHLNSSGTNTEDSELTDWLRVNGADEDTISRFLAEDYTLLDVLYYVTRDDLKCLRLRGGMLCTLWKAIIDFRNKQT
The data set is described as follows: In-vitro kinase profiling, radioisotope screening assay (Signal Chem). It counts as biochemical. To be noted: 5 μM compound, 50 μM ATP, vs vehicle control; negative = inhibition. Here is the method: Kinase profiling of PK analogs. The inhibitory effect of lead PK analogs were tested against a panel of 15 protein kinase targets (TABLE 1) to develop better lead candidates without “off” target effects. The selectivity assay was performed at Signal Chem™ (Richmond, BC, Canada) by profiling against protein kinase targets using the “Gold Standard” radioisotope screening assay format. This assay format gave the highest signal noise ratio and allowed the direct measurement of catalytic activity of a protein kinase.
All assays were performed in triplicate in a 96-well assay format and the % error between triplicates is <10%. Protein kinase assays was performed in the presence of 50 μM ATP at 30° C. for 15 min. The activity of the enzymes in the presence of 5 μM PK analogs was compared to that in the vehicle control and expressed as a percent change in activity relative to that observed in the vehicle control. In TABLE 1, the results are expressed as percent activity change compared to control. The intra-assay variability was determined to be less than 10%. Inhibition of target activity by the compound is shown by a negative value, while activation of target activity is shown by positive value, with values >10% considered to be highly significant.

Data set [4] can be described thus: LC-MS-MS detection in mouse brain after oral administration. It counts as in vivo. The source says: Bioavailability of Lead PK analogs. LC-MS-MS detection of lead PK analogs PK202 and PK8302 analog in mouse brain was completed.
Setting [5] is: co-treated with 0.3, 1 and 3 μM.
Setting [6] is: mouse brain, oral administration (oral gavage).

For the compound `Oc1cc(O)c(Cc2c(O)cc(O)cc2O)c(O)c1` [PK103], in data set [1], the horizontal locomotor deficits entry was “significantly improved” and the vertical locomotor deficits result is listed as “significantly improved”. Further, the “blockage of MPP+-induced cytotoxicity” value in data set [2] (co-treated with 3 μM) was “significant blockage”. Also, the “% activity change” value in data set [3] was 0%.
`CC(=O)c1c(O)c(C)c(O)c(Cc2c(O)c3c(c4c2OC(c2ccccc2)CC4=O)OC(C)(C)C=C3)c1O` (stereo not drawn) [PK202]: in data set [1], the horizontal locomotor deficits entry is given as “significantly improved” and the vertical locomotor deficits result was “significantly improved”. Also, the “relative potency against MPP+-induced cytotoxic cell death within the generation” value in data set [2] is reported as “most potent inhibitor”. For the same compound, the “blockage of MPP+-induced cytotoxicity” value in data set [2] (setting [5]) is on record as “significant blockage”. In addition, the “% activity change” value in data set [3] turned out to be 4%. For the same compound, the “level detected in substantia nigra by LC-MS-MS” value (“level detected” below) in data set [4] (setting [6]) was “Significant amounts”.
On to `CC1(C)C=Cc2c(O)cc(O)c(C(=O)/C=C/c3ccccc3)c2O1` [PK302], for which, in data set [1], the horizontal locomotor deficits entry was “significantly improved” and the vertical locomotor deficits result is recorded as “significantly improved”. In data set [2], the “relative potency against MPP+-induced cytotoxic cell death within the generation” value is recorded as “more potent inhibitors than PK301”. Besides, the “blockage of MPP+-induced cytotoxicity” value in data set [2] (setting [5]) is “significant blockage”. The “% activity change” value in data set [3] worked out at 0%. Besides, in data set [4] (mouse, in vivo, po), the “level detected” value is reported as “Significant amounts”.
As to `CC(=O)c1c(O)c(C)c(O)c(Cc2c(O)c3c(c(C(=O)/C=C/c4ccccc4)c2O)OC(C)(C)C=C3)c1O` [Rottlerin, (E)-1-[6-[(3-acetyl-2,4,6-trihydroxy-5-methylphenyl)methyl]-5,7-dihydroxy-2,2-dimethylchromen-8-yl]-3-phenylprop-2-en-1-one], the “% activity change” value in data set [3] is reported as 2%. Moreover, the “level detected” value in data set [4] (setting [6]) is “Significant levels”.
